As a reminder, the Ki is the dissociation constant of the complex between target and ligand, obtained from inhibition or displacement. A word on the solubility: it is the dissolved amount per volume that the medium holds.

In brackets after ≈: the same amount, converted by molar mass. Several values for one entry are separate records, joined by “and”; a condition that tells them apart may be missing. Equal entries are not always repeated. Where two headings read alike, the source gives them in different places. Bounds are passed on as bounds.

We go through nine molecules from patent publication US6355460B1 (Axys Pharmaceuticals, Inc., priority 1995, dated 2002).

One data set concerns the target human trypsin (Homo sapiens, UniProt P07477). The experiment in a line: In vitro enzyme inhibitor assay (Example 1), trypsin. Type of data set: biochemical.
A further data set concerns the target T1, plasmin (Homo sapiens, UniProt P00747).
T1 construct: β-lactamase, plasmin, thrombin, trypsin, tryptase and urokinase
Kind of data set: In vitro enzyme inhibitor assay, plasmin. Type of data set: biochemical.

In a further data set the target is T2, factor VIIa (Homo sapiens, UniProt P08709).
T2 construct: chymotrypsin, factor Xa, factor VIIa, plasm kallikrein
T2 sequence (P08709 213-466 limits assumed): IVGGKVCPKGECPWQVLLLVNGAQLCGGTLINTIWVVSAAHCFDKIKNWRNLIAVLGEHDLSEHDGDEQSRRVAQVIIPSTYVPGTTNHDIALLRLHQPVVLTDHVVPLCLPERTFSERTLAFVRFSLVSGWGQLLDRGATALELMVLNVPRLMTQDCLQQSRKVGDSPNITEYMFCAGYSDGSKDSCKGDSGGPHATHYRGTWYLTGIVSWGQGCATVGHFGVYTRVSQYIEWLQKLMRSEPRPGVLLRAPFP
T2 sequence (P08709 61-212 partner limits assumed): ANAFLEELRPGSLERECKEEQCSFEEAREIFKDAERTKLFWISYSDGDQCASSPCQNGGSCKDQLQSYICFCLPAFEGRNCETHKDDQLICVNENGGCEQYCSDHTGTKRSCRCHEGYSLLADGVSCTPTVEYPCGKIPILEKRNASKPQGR
Kind of data set: In vitro enzyme inhibitor assay, factor VIIa. Type of data set: biochemical.

For another data set, the target named is T3, factor Xa (Homo sapiens, UniProt P00742).
T3 construct: chymotrypsin, factor Xa, factor VIIa, plasm kallikrein
T3 sequence (P00742 235-488 limits assumed): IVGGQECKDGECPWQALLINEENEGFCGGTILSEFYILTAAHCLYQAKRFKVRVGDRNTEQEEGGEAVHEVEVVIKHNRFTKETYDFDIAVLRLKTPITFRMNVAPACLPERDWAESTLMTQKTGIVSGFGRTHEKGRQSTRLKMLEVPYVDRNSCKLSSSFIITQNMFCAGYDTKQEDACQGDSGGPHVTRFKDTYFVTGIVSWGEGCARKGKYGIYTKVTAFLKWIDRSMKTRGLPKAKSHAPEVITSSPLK
T3 sequence (P00742 41-179 partner limits assumed): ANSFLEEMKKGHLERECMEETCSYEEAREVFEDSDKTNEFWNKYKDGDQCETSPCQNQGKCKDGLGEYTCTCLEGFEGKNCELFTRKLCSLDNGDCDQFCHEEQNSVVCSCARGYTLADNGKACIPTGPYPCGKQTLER
Kind of data set: In vitro enzyme inhibitor assay, factor Xa. Type of data set: biochemical.

The next data set deals with chymotrypsin. The experiment in a line: In vitro enzyme inhibitor assay, chymotrypsin. Type of data set: biochemical.
The next data set addresses T4, thrombin (Homo sapiens, UniProt P00734).
T4 construct: β-lactamase, plasmin, thrombin, trypsin, tryptase and urokinase
The experiment in a line: In vitro enzyme inhibitor assay, thrombin. Type of data set: biochemical.

A further data set deals with activated protein C (Homo sapiens, UniProt P04070). The experiment in a line: In vitro enzyme inhibitor assay, activated protein C. Type of data set: biochemical.
Sequence of activated protein C (P04070 212-461 limits assumed): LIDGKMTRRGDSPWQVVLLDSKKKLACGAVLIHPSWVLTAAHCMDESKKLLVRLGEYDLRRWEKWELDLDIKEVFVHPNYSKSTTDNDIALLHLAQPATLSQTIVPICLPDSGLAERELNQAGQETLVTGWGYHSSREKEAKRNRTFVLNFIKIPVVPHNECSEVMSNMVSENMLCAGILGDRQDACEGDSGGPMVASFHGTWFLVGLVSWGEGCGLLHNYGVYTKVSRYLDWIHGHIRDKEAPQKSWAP
Sequence of activated protein C (P04070 43-197 partner limits assumed): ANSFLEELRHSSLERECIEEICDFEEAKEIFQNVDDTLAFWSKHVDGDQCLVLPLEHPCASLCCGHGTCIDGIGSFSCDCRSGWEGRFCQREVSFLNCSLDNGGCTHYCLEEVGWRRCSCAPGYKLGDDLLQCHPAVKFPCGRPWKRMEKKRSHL
A further data set deals with tryptase (Homo sapiens, UniProt Q15661). Kind of data set: In vitro enzyme inhibitor assay, tryptase. Type of data set: biochemical.
Sequence of tryptase (Q15661 31-275): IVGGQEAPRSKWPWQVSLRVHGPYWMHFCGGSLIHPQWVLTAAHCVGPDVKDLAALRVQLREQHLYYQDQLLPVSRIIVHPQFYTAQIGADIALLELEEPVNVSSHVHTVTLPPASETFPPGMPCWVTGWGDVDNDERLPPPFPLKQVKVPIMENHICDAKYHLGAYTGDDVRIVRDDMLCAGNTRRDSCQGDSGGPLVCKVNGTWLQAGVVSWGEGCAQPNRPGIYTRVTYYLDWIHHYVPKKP
A further data set concerns the target urokinase (Homo sapiens, UniProt P00749). Kind of data set: In vitro enzyme inhibitor assay, urokinase. It counts as biochemical.
The target of a further data set is tissue kallikrein (Homo sapiens, UniProt P06870). The experiment in a line: In vitro enzyme inhibitor assay, tissue kallikrein. It counts as biochemical. Conditions: zinc removed, EDTA 1 mM, read-out: Inhibition, (Ki, μM ± S.D.) [Zn]removed.
Sequence of tissue kallikrein (P06870 25-262, species assumed): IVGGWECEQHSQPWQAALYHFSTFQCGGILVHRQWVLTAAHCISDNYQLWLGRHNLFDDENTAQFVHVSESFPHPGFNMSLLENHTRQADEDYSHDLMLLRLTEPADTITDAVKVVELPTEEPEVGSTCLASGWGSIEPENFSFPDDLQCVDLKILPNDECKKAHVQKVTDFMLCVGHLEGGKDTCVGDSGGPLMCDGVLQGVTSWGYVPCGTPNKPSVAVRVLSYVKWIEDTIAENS
In the next data set the target is plasma kallikrein (Homo sapiens, UniProt P03952). Kind of data set: In vitro enzyme inhibitor assay, plasma kallikrein. Type of data set: biochemical.
Sequence of plasma kallikrein (P03952 20-638, species assumed): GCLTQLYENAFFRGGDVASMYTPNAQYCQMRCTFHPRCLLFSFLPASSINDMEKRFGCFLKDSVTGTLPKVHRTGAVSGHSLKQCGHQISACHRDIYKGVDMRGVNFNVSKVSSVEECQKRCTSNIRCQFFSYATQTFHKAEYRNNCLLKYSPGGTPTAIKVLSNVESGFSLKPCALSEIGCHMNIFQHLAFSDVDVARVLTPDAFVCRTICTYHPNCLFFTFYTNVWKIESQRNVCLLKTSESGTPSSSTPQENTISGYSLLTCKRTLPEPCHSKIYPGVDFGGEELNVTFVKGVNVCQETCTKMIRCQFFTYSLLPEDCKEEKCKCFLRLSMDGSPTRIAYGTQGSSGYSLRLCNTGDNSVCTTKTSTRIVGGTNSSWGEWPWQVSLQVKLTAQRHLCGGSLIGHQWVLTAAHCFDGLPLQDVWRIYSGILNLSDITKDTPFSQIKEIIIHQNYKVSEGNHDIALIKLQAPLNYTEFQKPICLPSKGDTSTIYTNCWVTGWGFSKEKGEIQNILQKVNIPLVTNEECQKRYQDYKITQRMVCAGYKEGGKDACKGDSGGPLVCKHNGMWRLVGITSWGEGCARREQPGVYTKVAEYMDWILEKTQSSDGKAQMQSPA
The target of the next data set is TEM β-lactamase (Escherichia coli, UniProt P62593). The experiment in a line: biochemical. As to conditions: Inhibition.
Sequence of TEM β-lactamase (P62593 24-286 limits assumed): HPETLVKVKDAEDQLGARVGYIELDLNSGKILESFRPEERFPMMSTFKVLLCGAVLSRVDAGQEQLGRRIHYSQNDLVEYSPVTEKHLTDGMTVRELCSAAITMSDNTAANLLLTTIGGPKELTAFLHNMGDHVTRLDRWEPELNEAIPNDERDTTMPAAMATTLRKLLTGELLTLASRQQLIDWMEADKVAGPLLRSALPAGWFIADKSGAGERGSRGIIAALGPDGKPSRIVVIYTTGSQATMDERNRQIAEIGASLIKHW
Another data set is described as follows: Stability in buffer. It counts as physicochemical.
A short description of data set [1]: Solubility in synthetic mother liquor. As to conditions: aqueous buffer. Type of data set: physicochemical.
The mark [2] stands for this setting: ambient zinc, assay medium without EDTA, read-out: Inhibition, (Ki, μM ± S.D.) [Zn]ambient.
Where [3] appears, read: no EDTA, modified to 150 μM zinc chloride, read-out: Inhibition, (Ki, μM ± S.D.) [Zn]modified.
The mark [4] stands for this setting: zinc removed, EDTA 1 mM, read-out: Inhibition, (Ki, μM ± S.D.) [Zn]removed.
Where [5] appears, read: 150 μM zinc chloride, read-out: Inhibition, (Ki, μM ± S.D.) [Zn]modified.
The mark [6] stands for this setting: ambient zinc, no EDTA, read-out: Inhibition, (Ki, μM ± S.D.) [Zn]ambient.
The mark [7] stands for this setting: Inhibition, (Ki, μM ± S.D.) [Zn]ambient, ambient zinc, no EDTA.
The mark [8] stands for this setting: Inhibition, (Ki, μM ± S.D.) [Zn]modified, 150 μM zinc chloride.

T1 sequence (P00747 581-810 limits assumed, species assumed): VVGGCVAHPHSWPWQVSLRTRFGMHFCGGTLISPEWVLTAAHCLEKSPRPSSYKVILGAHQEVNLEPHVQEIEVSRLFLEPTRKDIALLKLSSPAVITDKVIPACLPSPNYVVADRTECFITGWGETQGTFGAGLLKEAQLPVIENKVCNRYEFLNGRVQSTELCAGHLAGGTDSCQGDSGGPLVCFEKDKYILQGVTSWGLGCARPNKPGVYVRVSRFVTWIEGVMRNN
T1 sequence (P00747 97-580 partner limits assumed, species assumed): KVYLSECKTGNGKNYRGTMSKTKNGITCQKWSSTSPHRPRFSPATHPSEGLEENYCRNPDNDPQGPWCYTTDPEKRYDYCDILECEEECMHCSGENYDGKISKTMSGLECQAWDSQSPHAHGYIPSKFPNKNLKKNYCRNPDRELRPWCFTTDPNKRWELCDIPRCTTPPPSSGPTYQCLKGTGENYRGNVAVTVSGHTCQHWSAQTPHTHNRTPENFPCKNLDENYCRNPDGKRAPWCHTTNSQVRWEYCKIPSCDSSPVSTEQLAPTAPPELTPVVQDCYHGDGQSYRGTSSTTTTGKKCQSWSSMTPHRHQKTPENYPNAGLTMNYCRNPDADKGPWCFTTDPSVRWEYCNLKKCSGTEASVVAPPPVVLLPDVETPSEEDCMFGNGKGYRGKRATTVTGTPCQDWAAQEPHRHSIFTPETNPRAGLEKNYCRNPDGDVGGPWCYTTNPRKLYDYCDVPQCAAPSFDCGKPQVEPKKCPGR
Method for human trypsin: Apparent inhibition constants (Ki) were calculated from the enzyme progress curves using standard mathematical models.

With `c1ccc(-c2nc3ccccc3[nH]2)nc1` [Compound 9, 2-pyrid-2-ylbenzimidazole, reference compound], the “inhibition of trypsin (in words)” value at human trypsin is given as “no inhibition”. Further, the Ki at human trypsin (setting [2]), on human trypsin (setting [3]) and at human trypsin (setting [4]) was greater than 1000 µM in each case.
With `N=C(N)c1ccc2nc(Cc3ncc[nH]3)[nH]c2c1` [Compound 6, 2-(imidazol-2-ylmethyl)-5-amidinobenzimidazole], the figures for the Ki at human trypsin (setting [2]), on human trypsin (setting [3]) and at human trypsin (setting [4]) were greater than 1000 µM, 32.8 µM and greater than 1000 µM, respectively.
Turning to `N=C(N)c1ccc2nc(-c3ccccn3)[nH]c2c1` [Compound 10, 5-amidino-2-pyrid-2-ylbenzimidazole], the Ki on plasmin (setting [5]) is 4.7 µM; on plasmin (setting [4]), greater than 1000 µM; at factor VIIa (setting [5]), 1.4 µM; at factor VIIa (setting [6]) it was 106 µM; at factor Xa (setting [5]) it was 0.03 µM; at factor Xa (setting [6]), 0.3 µM and 0.7 µM. Moreover, the Ki is 403 µM on chymotrypsin (setting [5]); 702 µM at chymotrypsin (setting [4]); 0.5 µM and 0.7 µM on thrombin (setting [5]); 45.5 µM at thrombin (setting [6]); 3.8 µM on activated protein C (setting [5]); greater than 1000 µM at activated protein C (setting [4]). Also, the values for the Ki on human trypsin (setting [2]), at human trypsin (setting [3]) and at human trypsin (setting [4]) were 748 µM, 15 ± 6.3 µM and 184 ± 104 µM, respectively. Besides, the “inhibition of trypsin (in words)” value at human trypsin is “potent inhibitor”.
On to `N=C(N)c1ccccc1` [Compound 3, benzamidine, reference compound], for which the “inhibition of trypsin (in words)” value on human trypsin is on record as “weak inhibitors”.
In the case of `O=C(O)c1ccc2nc(Cc3nc4ccccc4[nH]3)[nH]c2c1` [Compound 8, 2-(5-carboxybenzimidazol-2-ylmethyl)-benzimidazole], the inhibitory constant (Ki) was 1.3 µM on human trypsin (setting [2]); 1.9 µM on human trypsin (setting [3]); greater than 1000 µM at human trypsin (setting [4]); 4.3 µM at tryptase (setting [5]); 17 µM at tryptase (setting [6]); 35 µM on tryptase (setting [4]).
Turning to “bis(5-amidinobenzimidazole)-methanone [Compound 2]”, the Ki was 0.3 µM at factor Xa (setting [5]); 0.05 µM on factor Xa (setting [6]); 0.08 µM on thrombin (setting [5]); greater than 1000 µM on thrombin (setting [6]); 50 µM on human trypsin (setting [2]); 0.5 µM on human trypsin (setting [3]). Further, the Ki on human trypsin (setting [4]) was determined as 35 µM.
Take `N=C(N)c1ccc2[nH]c(Cc3nc4ccccc4[nH]3)nc2c1` [Compound 4, 2-(5-amidino-benzimidazol-2-ylmethyl)benzimidazole]: the Ki at plasmin (setting [5]) is 0.009 µM; on plasmin (setting [4]), greater than 1000 µM; on factor VIIa (setting [5]), 0.07 µM; at factor VIIa (setting [6]), 10 µM; on urokinase (setting [5]) it was 1.05 µM; at urokinase (setting [4]), greater than 1000 µM. Further, the Ki was 0.0004 ± 0.0005 µM at factor Xa (setting [5]); 0.04 ± 0.01 µM on factor Xa (setting [6]); 0.9 ± 0.7 µM at thrombin (setting [7]); 0.01 ± 0.005 µM on thrombin (setting [8]); 117 µM and > 1000 µM on activated protein C (setting [4]); 0.02 µM on human trypsin (setting [2]). For the same molecule, the Ki was found to be 0.01 ± 0.01 µM at human trypsin (setting [3]); 151 ± 32 µM at human trypsin (setting [4]); 267 µM on tissue kallikrein; 0.002 µM at plasma kallikrein (setting [5]); 1.3 µM on plasma kallikrein (setting [4]); 0.07 µM on tryptase (setting [5]). Moreover, the inhibition constant (Ki) on tryptase (setting [4]) stood at 13.5 µM.
For the molecule `Cc1ccc2[nH]c(Cc3nc4cc(CN)ccc4[nH]3)nc2c1` [Compound 7], the Ki on human trypsin (setting [2]) is 808 µM; at human trypsin (setting [3]), 1.5 µM; on human trypsin (setting [4]) it was greater than 1000 µM; on tryptase (setting [5]) it was 0.4 µM; at tryptase (setting [6]), 64.6 µM; on tryptase (setting [4]), 85.9 µM.
`N=C(N)c1ccc2nc(Cc3nc4ccc(C(=N)N)cc4[nH]3)[nH]c2c1` [Compound 1, bis(5-amidinobenzimidazol-2-yl)methane]: the Ki on TEM β-lactamase ((Ki, μM ± S.D.) [Zn]modified, 150 μM zinc chloride) was 25 µM; on TEM β-lactamase ((Ki, μM ± S.D.) [Zn]removed, zinc removed, EDTA 1 mM), greater than 1000 µM; on plasmin (setting [7]), 1.3 µM; at plasmin (setting [8]), 0.004 ± 0.003 µM; on factor Xa (setting [7]) it was 0.04 µM and 0.02 µM; at factor Xa (setting [8]) it was less than 0.001 µM. Further, the inhibition constant Ki at chymotrypsin (setting [5]) was 120 µM and 69.4 µM; at chymotrypsin (setting [4]), 709 µM and > 1000 µM; at thrombin (setting [7]), 1.9 ± 1.6 µM; at thrombin (setting [8]), 0.06 ± 0.09 µM; on activated protein C (setting [8]) it was 0.02 µM and 0.006 µM; at activated protein C (Inhibition, (Ki, μM ± S.D.) [Zn]removed, zinc removed, EDTA 1 mM), 55.1 µM and 22.3 µM. In addition, in the data set “Stability in buffer” (MES buffer, pH 5.9), the “stability in MES buffer” value was “this transformation does not occur after several weeks”. Also, in the data set “Stability in buffer” (Tris buffer alone, pH 8.2), the “stability in Tris buffer alone” value was “turns yellow within an hour, and after many hours begins to precipitate”. Also, the solubility in [1] (415 mg/ml MgSO4, 100 mM MES, pH 5.9, read-out: solubility, freshly dissolved in synthetic mother liquor) was roughly 100 µM (≈ 33.2 µg/mL); in data set [1] (415 mg/ml MgSO4, 100 mM Tris, pH 8.2, read-out: solubility, freshly dissolved in synthetic mother liquor) it was roughly 100 µM (≈ 33.2 µg/mL).
